Experimental data: ChEMBL document CHEMBL5303573, “Mapping human microbiome drug metabolism by gut bacteria and their genes” (Nature, 2019)

Key:
[1] = The drug is tested on Collinsella intestinalis strain: DSM13280 for biotransformation. The drug concentrations were measured before and after a 12-h incubation by liquid-chromatography-coupled mass spectrometry (LC–MS); settings: 2 µM
[2] = The drug is tested on Bacteroides caccae strain: ATCC43185 for biotransformation. The drug concentrations were measured before and after a 12-h incubation by liquid-chromatography-coupled mass spectrometry (LC–MS); settings: 2 µM
[3] = The drug is tested on Bacteroides fragilis strain: HMW610 for biotransformation. The drug concentrations were measured before and after a 12-h incubation by liquid-chromatography-coupled mass spectrometry (LC–MS); settings: 2 µM
[4] = The drug is tested on Blautia luti strain: DSM14534 for biotransformation. The drug concentrations were measured before and after a 12-h incubation by liquid-chromatography-coupled mass spectrometry (LC–MS); assay type: ADME; parameters: dose 2 uM, timepoint 0 vs 12 hours; settings: 2 µM
[5] = The drug is tested on Clostridium sp. strain: fecal isolate for biotransformation. The drug concentrations were measured before and after a 12-h incubation by liquid-chromatography-coupled mass spectrometry (LC–MS); settings: 2 µM
[6] = The drug is tested on Clostridium symbiosum strain: ATCC14940 for biotransformation. The drug concentrations were measured before and after a 12-h incubation by liquid-chromatography-coupled mass spectrometry (LC–MS); settings: 2 µM
[7] = The drug is tested on Dorea formicigenerans strain: ATCC27755 for biotransformation. The drug concentrations were measured before and after a 12-h incubation by liquid-chromatography-coupled mass spectrometry (LC–MS); settings: 2 µM
[8] = The drug is tested on Ruminococcus torques strain: ATCC27756 for biotransformation. The drug concentrations were measured before and after a 12-h incubation by liquid-chromatography-coupled mass spectrometry (LC–MS); assay type: ADME; parameters: dose 2 uM, timepoint 0 vs 12 hours; settings: 2 µM
[9] = The drug is tested on Edwardsiella tarda strain: ATCC23685 for biotransformation. The drug concentrations were measured before and after a 12-h incubation by liquid-chromatography-coupled mass spectrometry (LC–MS); settings: 2 µM
[10] = bacteroides fragilis, 12 h, 2 µM
Description: The drug is tested on Bacteroides fragilis strain: 3397 (T10) for biotransformation. The drug concentrations were measured before and after a 12-h incubation by liquid-chromatography-coupled mass spectrometry (LC–MS)

[11] = bacteroides thetaiotaomicron, 12 h, 2 µM
Description: The drug is tested on Bacteroides thetaiotaomicron strain: 3731 for biotransformation. The drug concentrations were measured before and after a 12-h incubation by liquid-chromatography-coupled mass spectrometry (LC–MS)

[12] = parabacteroides johnsonii, 12 h, 2 µM
Description: The drug is tested on Parabacteroides johnsonii strain: DSM18315 for biotransformation. The drug concentrations were measured before and after a 12-h incubation by liquid-chromatography-coupled mass spectrometry (LC–MS)

[13] = segatella copri, 12 h, 2 µM
Description: The drug is tested on Prevotella copri strain: DSM18205 for biotransformation. The drug concentrations were measured before and after a 12-h incubation by liquid-chromatography-coupled mass spectrometry (LC–MS)

[14] = anaerostipes sp., 12 h, 2 µM
Description: The drug is tested on Anaerostipes sp. strain: fecal isolate for biotransformation. The drug concentrations were measured before and after a 12-h incubation by liquid-chromatography-coupled mass spectrometry (LC–MS)

[15] = akkermansia muciniphila, 12 h, 2 µM
Description: The drug is tested on Akkermansia muciniphila strain: ATCC BAA-835 for biotransformation. The drug concentrations were measured before and after a 12-h incubation by liquid-chromatography-coupled mass spectrometry (LC–MS)

[16] = The drug is tested on Providencia rettgeri strain: DSM1131 for biotransformation. The drug concentrations were measured before and after a 12-h incubation by liquid-chromatography-coupled mass spectrometry (LC–MS); assay type: ADME; parameters: dose 2 uM, timepoint 0 vs 12 hours; settings: 2 µM
[17] = The drug is tested on Providencia stuartii strain: ATCC25827 for biotransformation. The drug concentrations were measured before and after a 12-h incubation by liquid-chromatography-coupled mass spectrometry (LC–MS); settings: 2 µM
[18] = bacteroides fragilis, 12 h, 2 µM; remark: listed apart in the source
Description: The drug is tested on Bacteroides fragilis strain: NCTC 9343 for biotransformation. The drug concentrations were measured before and after a 12-h incubation by liquid-chromatography-coupled mass spectrometry (LC–MS)

[19] = The drug is tested on Clostridium sporogenes strain: ATCC15579 for biotransformation. The drug concentrations were measured before and after a 12-h incubation by liquid-chromatography-coupled mass spectrometry (LC–MS); settings: 2 µM

Row | SMILES | Bacterial Biotransformation [1] | Bacterial Biotransformation [2] | Bacterial Biotransformation [3] | Bacterial Biotransformation [4] | Bacterial Biotransformation [5] | Bacterial Biotransformation [6] | Bacterial Biotransformation [7] | Bacterial Biotransformation [8] | Bacterial Biotransformation [9] | Bacterial Biotransformation [10] | Bacterial Biotransformation [11] | Bacterial Biotransformation [12] | Bacterial Biotransformation [13] | Bacterial Biotransformation [14] | Bacterial Biotransformation [15] | Bacterial Biotransformation [16] | Bacterial Biotransformation [17] | Bacterial Biotransformation [18] | Bacterial Biotransformation [19]
1 | CCCC1O[C@@H]2C[C@H]3[C@@H]4CCC5=CC(=O)C=C[C@]5(C)[C@H]4[C@@H](O)C[C@]3(C)[C@]2(C(=O)CO)O1 (some centres undefined) [BUDESONIDE] | Compound NOT metabolized | Compound NOT metabolized | Compound metabolized | Compound NOT metabolized | Compound metabolized | Compound NOT metabolized | Compound NOT metabolized | Compound NOT metabolized | Compound NOT metabolized | Compound metabolized | Compound metabolized | Compound metabolized | Compound NOT metabolized | Compound NOT metabolized | Compound NOT metabolized |  |  |  | 
2 | CCC1(c2ccc(N)cc2)CCC(=O)NC1=O (centres undefined) [AMINOGLUTETHIMIDE] | Compound NOT metabolized | Compound NOT metabolized | Compound NOT metabolized | Compound NOT metabolized |  | Compound NOT metabolized | Compound NOT metabolized |  | Compound NOT metabolized |  | Compound NOT metabolized | Compound NOT metabolized | Compound NOT metabolized | Compound NOT metabolized | Compound NOT metabolized | Compound NOT metabolized | Compound NOT metabolized | Compound NOT metabolized | 
3 | CN/C(=N/CCSCc1nc[nH]c1C)NC#N [CIMETIDINE] | Compound NOT metabolized |  | Compound NOT metabolized | Compound NOT metabolized |  | Compound NOT metabolized | Compound NOT metabolized | Compound NOT metabolized | Compound NOT metabolized | Compound metabolized | Compound metabolized |  |  | Compound NOT metabolized | Compound NOT metabolized | Compound NOT metabolized | Compound NOT metabolized | Compound NOT metabolized | 
4 | CCCC(C)(COC(N)=O)COC(=O)NC(C)C (centres undefined) [CARISOPRODOL] | Compound NOT metabolized | Compound NOT metabolized | Compound metabolized |  | Compound metabolized | Compound NOT metabolized | Compound NOT metabolized | Compound NOT metabolized |  | Compound metabolized |  |  | Compound metabolized | Compound NOT metabolized | Compound NOT metabolized |  | Compound NOT metabolized | Compound metabolized | 
5 | CN(C)CCC=C1c2ccccc2C=Cc2ccccc21 [CYCLOBENZAPRINE] | Compound NOT metabolized | Compound NOT metabolized | Compound NOT metabolized | Compound NOT metabolized | Compound metabolized | Compound NOT metabolized | Compound NOT metabolized | Compound NOT metabolized | Compound NOT metabolized | Compound NOT metabolized |  |  | Compound NOT metabolized | Compound NOT metabolized |  |  | Compound NOT metabolized | Compound NOT metabolized | 
6 | CN1C[C@H](C(=O)N[C@]2(C)O[C@@]3(O)[C@@H]4CCCN4C(=O)[C@H](Cc4ccccc4)N3C2=O)C=C2c3cccc4[nH]cc(c34)C[C@H]21.CN1C[C@H](C(=O)N[C@]2(C)O[C@@]3(O)[C@@H]4CCCN4C(=O)[C@H](Cc4ccccc4)N3C2=O)C=C2c3cccc4[nH]cc(c34)C[C@H]21.O=C(O)C(O)C(O)C(=O)O [ERGOTAMINE TARTRATE] | Compound NOT metabolized | Compound metabolized |  | Compound metabolized |  | Compound metabolized | Compound NOT metabolized | Compound NOT metabolized | Compound metabolized | Compound metabolized | Compound metabolized | Compound metabolized | Compound metabolized | Compound metabolized | Compound metabolized | Compound metabolized | Compound metabolized | Compound metabolized | Compound metabolized
7 | COc1ccc2c(c1OC)C(=O)O[C@@H]2[C@H]1c2c(cc3c(c2OC)OCO3)CCN1C [NOSCAPINE] | Compound metabolized | Compound NOT metabolized | Compound NOT metabolized | Compound metabolized |  | Compound metabolized | Compound metabolized | Compound metabolized | Compound metabolized | Compound NOT metabolized |  | Compound metabolized | Compound metabolized | Compound metabolized | Compound metabolized | Compound metabolized | Compound metabolized | Compound metabolized | Compound NOT metabolized
8 | CCOC(=O)[C@H](CCc1ccccc1)N[C@@H](C)C(=O)N1[C@H](C(=O)O)C[C@H]2CCCC[C@@H]21 [TRANDOLAPRIL] |  | Compound NOT metabolized |  | Compound NOT metabolized |  | Compound NOT metabolized | Compound NOT metabolized | Compound NOT metabolized | Compound NOT metabolized | Compound metabolized |  |  | Compound metabolized | Compound NOT metabolized | Compound NOT metabolized | Compound metabolized | Compound NOT metabolized | Compound metabolized | Compound metabolized
9 | NC12CC3CC(CC(C3)C1)C2 [AMANTADINE] | Compound NOT metabolized | Compound NOT metabolized | Compound NOT metabolized | Compound NOT metabolized | Compound NOT metabolized | Compound NOT metabolized | Compound NOT metabolized | Compound NOT metabolized | Compound NOT metabolized |  | Compound NOT metabolized | Compound NOT metabolized | Compound NOT metabolized | Compound NOT metabolized | Compound NOT metabolized |  | Compound NOT metabolized |  | 
